According to patent publication US6610270B1, “In vivo determination of metabolic function for use in therapy management” (Xanthus Life Sciences, Inc., priority 1998, dated 2003):

What was measured:
[1] = system: N-acetyl transferase (NAT); assay: NAT metaprobe 13C recovery in urinary glucosamine fraction; type: in vivo, Sprague-Dawley rats; settings: 5 mg/kg by gastric intubation, 24 hour urine, bile acid glucosamine fraction
Text: (§1) In the first experiment, six male Sprague-Dawley rats, weighing on average 300 grams, were studied while awake and unstressed after an overnight fast. […] Food and water were then given ad libitum. After receiving the metaprobes, the animals were kept in metabolic cages to facilitate collection of urine (Robinson, 1968).

[2] = system: N-acetyl transferase (NAT); assay: NAT metaprobe 13C recovery in human urine; type: in vivo
Method: The tracers were ingested each time with 100 ml of a 10% aqueous solution of high fructose corn syrup. Urine samples were collected at 12, 24 and 36 hours. […] The analysis of each urine sampling interval was carried out in triplicate and the variation among replicates fell within 15%. […] Also, since aspartyl-N-acetyl-glucosamine pyranoside is rapidly synthesized and subsequently turned over by lysozomes, its rate of appearance in plasma can be determined, along with the plasma rate of appearance of N-acetylglucosamine, at shorter intervals post dosing. Thus, the MRI2 index could be computed within reach of the two-hour preferred sampling time frame for the practicable implementation of diagnostic procedures with metaprobes.

[3] = system: glutamine-fructose-6-phosphate aminotransferase (GFAT); settings: rat, in vivo
Text: as §1

[4] = molecular target: T1, Prolyl oligopeptidase (PO) (Homo sapiens, UniProt P48147); assay: prolyl oligopeptidase metaprobe hydrolysis in bronchoalveolar lavage fluid; type: biochemical; settings: Human BAL
T1 sequence (P48147 1-710): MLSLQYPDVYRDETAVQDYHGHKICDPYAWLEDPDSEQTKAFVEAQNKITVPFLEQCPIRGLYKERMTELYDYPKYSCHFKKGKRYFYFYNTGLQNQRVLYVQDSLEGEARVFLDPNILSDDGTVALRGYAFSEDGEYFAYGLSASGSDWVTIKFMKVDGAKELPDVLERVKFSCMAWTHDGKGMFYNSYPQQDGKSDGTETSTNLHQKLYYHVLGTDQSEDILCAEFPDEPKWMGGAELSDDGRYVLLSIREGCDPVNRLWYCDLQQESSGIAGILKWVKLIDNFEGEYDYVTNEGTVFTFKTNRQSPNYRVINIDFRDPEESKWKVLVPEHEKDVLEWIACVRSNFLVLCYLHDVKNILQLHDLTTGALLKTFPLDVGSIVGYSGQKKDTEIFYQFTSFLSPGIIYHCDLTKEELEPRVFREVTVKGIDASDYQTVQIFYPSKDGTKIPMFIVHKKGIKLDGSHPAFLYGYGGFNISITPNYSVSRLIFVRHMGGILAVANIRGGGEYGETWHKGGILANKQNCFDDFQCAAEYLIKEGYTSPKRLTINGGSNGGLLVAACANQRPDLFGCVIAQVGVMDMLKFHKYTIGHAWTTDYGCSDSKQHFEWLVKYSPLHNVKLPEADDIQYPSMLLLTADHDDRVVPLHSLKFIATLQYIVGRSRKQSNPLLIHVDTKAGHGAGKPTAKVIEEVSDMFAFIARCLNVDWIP

[5] = molecular target: T2, Prolyl oligopeptidase (PO) (Rattus norvegicus, UniProt O70196); assay: prolyl oligopeptidase metaprobe hydrolysis in rat plasma, brain and lung preparations; type: biochemical
T2 sequence (O70196 1-710): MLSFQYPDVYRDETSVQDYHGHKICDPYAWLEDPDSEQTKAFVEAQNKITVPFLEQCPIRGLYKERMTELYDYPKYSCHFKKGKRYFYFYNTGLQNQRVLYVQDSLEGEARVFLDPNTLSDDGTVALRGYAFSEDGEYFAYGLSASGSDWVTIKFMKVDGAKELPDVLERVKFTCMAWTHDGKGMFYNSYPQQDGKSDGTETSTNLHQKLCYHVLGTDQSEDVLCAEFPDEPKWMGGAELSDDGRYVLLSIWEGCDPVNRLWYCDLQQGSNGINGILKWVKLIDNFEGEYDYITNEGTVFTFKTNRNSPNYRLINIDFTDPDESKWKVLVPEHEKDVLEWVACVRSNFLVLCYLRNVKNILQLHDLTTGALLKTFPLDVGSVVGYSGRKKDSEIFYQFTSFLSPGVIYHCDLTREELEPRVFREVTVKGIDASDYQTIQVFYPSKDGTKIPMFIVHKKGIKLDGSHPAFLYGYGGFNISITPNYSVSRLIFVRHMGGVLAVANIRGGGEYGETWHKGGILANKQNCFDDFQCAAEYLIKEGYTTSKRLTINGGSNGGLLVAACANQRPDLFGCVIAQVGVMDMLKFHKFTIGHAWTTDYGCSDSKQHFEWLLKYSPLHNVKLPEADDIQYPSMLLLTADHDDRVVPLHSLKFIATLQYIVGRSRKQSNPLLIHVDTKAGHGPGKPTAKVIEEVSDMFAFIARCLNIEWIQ

Structure (SMILES): CC(=O)N[C@@H]1[C@@H](O)[C@H](O)[C@@H](CO)O[13CH]1O (some centres unmarked) [N-acetyl-1-^13C-glucosamine]
- percent recovery of 13C [1]: 0.15+/−0.073%
- 13C % Dose ([2]; time point 12 hr): .089 % Dose
- 13C % Dose ([2]; time point 24 hr): .189 % Dose
- 13C % Dose ([2]; time point 36 hr): .213 % Dose

Structure (SMILES): CC(=O)NC(CCC([15NH2])=O)C(=O)O (centres unmarked) [N-acetyl-5-^15N-glutamine]
- normalized 15N/13C GFAT-MRI1 [3]: 24

Structure (SMILES): CCO[13C](=O)[C@H](CC)NC(=O)[C@@H]1CCCN1C(=O)CNC(=O)OCc1ccccc1 [Prolyl oligopeptidase Metaprobe, N-carbobenzyloxy-glycyl-L-prolyl-L-2-aminobutyric [1-^13C] acid ethyl ester]
- % Dose metabolized ([4]; Control, two hour incubation at 37° C.): 30 ± 4 % Dose
- % Dose metabolized ([4]; Test sample, ARDS): 54 ± 13 % Dose
- % Dose metabolized ([5]; Rat Brain homogenate (acetone powder), Control): 44 ± 8 % Dose
- % Dose metabolized ([5]; Rat Lung homogenate (acetone powder), Control): 24 ± 12 % Dose
- % Dose metabolized ([5]; Rat Plasma, Control): 2 ± 4 % Dose
- % Dose metabolized ([5]; Rat Plasma, Test sample, Sepsis): 8 ± 5 % Dose
